“And” between values parts separate entries of the source, which are not always exact repeats. Equal entries are not always repeated.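 In this assay, cells in 96-well plates receive the compound at five concentrations for 48 hours. Endpoints are linearly interpolated between the surrounding concentrations. GI50: concentration for 50% inhibition of growth. Definition used: TGI = concentration required for complete inhibition of growth.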
Columns and labels:
Test in all cases: growth of human tumour cells (NCI), 48 h
A549 NSCLC = tested on: A549 NSCLC
HCC-2998 colon = tested on: HCC-2998 colon
HL-60(TB) leukemia = tested on: HL-60(TB) leukemia
K-562 leukemia = tested on: K-562 leukemia
M14 melanoma = tested on: M14 melanoma
NCI-H460 lung = tested on: NCI-H460 lung
NCI/ADR-RES ovarian = tested on: NCI/ADR-RES ovarian
OVCAR-5 ovarian = tested on: OVCAR-5 ovarian
SN12C renal = tested on: SN12C renal
SW-620 colon = tested on: SW-620 colon

| Structure (SMILES) | TGI (A549 NSCLC) | TGI (HCC-2998 colon) | TGI (HL-60(TB) leukemia) [µM] | TGI (K-562 leukemia) | TGI (M14 melanoma) | TGI (NCI-H460 lung) | TGI (NCI/ADR-RES ovarian) [µM] | TGI (OVCAR-5 ovarian) | TGI (SN12C renal) | TGI (SW-620 colon) | GI50 (A549 NSCLC) [µM] | GI50 (HCC-2998 colon) [µM] | GI50 (HL-60(TB) leukemia) [µM] | GI50 (K-562 leukemia) [µM] | GI50 (M14 melanoma) [µM] | GI50 (NCI-H460 lung) [µM] | GI50 (NCI/ADR-RES ovarian) [µM] | GI50 (OVCAR-5 ovarian) [µM] | GI50 (SN12C renal) [µM] | GI50 (SW-620 colon) [µM] |
| --- | --- | --- | --- | --- | --- | --- | --- | --- | --- | --- | --- | --- | --- | --- | --- | --- | --- | --- | --- | --- |
| COC12C(COC(N)=O)C3=C(C(=O)C(C)=C(N)C3=O)N1CC1C2N1C (stereo not given) | 24.2 µM | 16.7 µM | 8.66 | 179 µM | 22.7 µM | 1.86 µM | 268 | 63.1 µM | 29.5 µM | 35.8 µM |  |  |  |  |  |  |  |  |  |  |
| C[C@H](Nc1cc(Cl)nc2c1cnn2[C@@H]1O[C@H](COP(=O)(O)CP(=O)(O)O)[C@@H](O)[C@H]1O)c1ccccc1F | > 100 µM | > 100 µM | > 100 | > 100 µM | > 100 µM | > 100 µM | > 100 | > 100 µM | > 100 µM | > 100 µM | > 100 | > 100 | > 100 | > 100 | > 100 | > 100 | > 100 | > 100 | > 100 | > 100 |
| CS(=O)(=O)Nc1cc(-c2ccc3ncnc(Nc4c(Cl)ccc5c4OCO5)c3c2)cnc1Cl | 1.94 µM | 1.51 µM | 0.92 | > 48.4 µM | 1.48 µM | 4.76 µM | 4.19 | 2.1 µM | > 100 µM | 2.99 µM | 0.255 | 0.262 | 0.159 | 0.484 | 0.2 | 0.236 | 0.477 | 0.164 | 0.202 | 0.327 |
| CC1(C)N=C(N)N=C(N)N1c1ccc(CCCCc2ccc(Cl)c(S(=O)(=O)F)c2)c(Cl)c1 | 3.98 µM | 15.1 µM | 4.1 | 15.8 µM | > 41.2 µM | 16.5 µM | > 100 | 27.1 µM | 16.2 µM | 15.4 µM | 0.319 | 0.922 | 0.38 | 0.127 | 0.756 | 0.315 | 40 | 13.9 | 0.306 | 0.147 |
| CCOC(=O)/C=C/c1ccc(C#Cc2ccccc2)cc1 | > 100 µM | > 100 µM | > 100 | > 100 µM | > 100 µM | > 100 µM | > 100 | > 100 µM | > 100 µM | > 100 µM | 72.2 | > 100 | > 100 | 72 | > 100 | 66.1 | > 100 | > 100 | > 100 | > 100 |
| C/C(=N\NC(=S)N1CCCCCC1)c1ccccn1 | 6.46 µM and 2.49 µM | 2.03 µM and 1.35 µM | 0.185 | 1.92 µM and 4.53 µM | 1.56 µM and 0.74 µM | 1.47 µM and 2.22 µM | 3.32 | 2.67 µM and 3.98 µM | 4.31 µM and 5.6 µM | 1.85 µM and 4.74 µM | < 0.0188 | 0.0374 |  |  | 0.0103 | 0.0421 |  | < 0.0165 | 0.0246 | < 0.0204 |
| C=C1C(=O)OC2CC(C)C(C(O)CC(C)O)=CCC12 (stereo not given) | > 80.6 µM | 33.2 µM | 13.5 | 37.1 µM | 35 µM | 46.6 µM | 41 | 30.7 µM | 33.1 µM | 37.6 µM |  |  |  |  |  |  |  |  |  |  |
| COC(=O)C1=CN(CC2=CC(=O)C(C)=CC2=O)C=C(C(=O)OC)C1c1cccc(OC)c1 | > 67.2 µM | 32.6 µM | > 100 | > 35.6 µM | 35.6 µM | 49.7 µM | 60.2 | 42 µM | > 60.5 µM | 4.81 µM | 25.1 | 12.5 | 4.76 | 3.84 | 18.6 | 14.3 | 12.4 | 19 | 22.9 | 2.2 |
| CN(C)c1ncnc2c1ncn2CCn1cnc2c(N(C)C)ncnc21 | > 100 µM | > 100 µM | > 100 |  | > 100 µM | > 100 µM | > 100 | > 100 µM | > 100 µM | > 100 µM |  |  |  |  |  |  |  |  |  |  |
| O=C(/C=C/C=C/c1ccccc1)c1ccccc1 | 42.7 µM | 31.7 µM | 28.6 | 66.2 µM | 33.6 µM | 49.5 µM | 27.1 | 28.8 µM | 29.7 µM | 30.3 µM |  |  |  |  |  |  |  |  |  |  |
| COc1ccc(C2=C(c3ccc(OC)cc3)C(=O)N3CCCC3C2)cc1 (stereo not given) | > 100 µM | 93.4 µM | 28.4 | > 100 µM | > 100 µM | > 40.9 µM | > 100 | > 100 µM | > 100 µM | > 100 µM | 9.42 | 26.4 | 4.36 |  | 28 | 1.81 | 10.3 | > 83.7 | 22.5 | 15.4 |
| Clc1nc(Cl)nc(Nc2cccc3ccccc23)n1 | > 100 µM | > 100 µM | > 100 | > 100 µM | > 100 µM | > 100 µM | > 100 | > 100 µM | > 100 µM | > 100 µM | > 100 | > 100 | > 100 | 40.8 | > 100 | > 100 | > 100 | > 100 | > 100 | 94.7 |
| CN1CC[C@@H](c2c(O)cc(O)c3c(=O)cc(-c4ccc(C(F)(F)F)cc4Cl)oc23)[C@@H]1CO | 56.2 µM | 33.1 µM | 33.6 | 85.6 µM | 33.8 µM | 31.4 µM | 51.6 | 59.3 µM | 44.6 µM | 31.5 µM | 23.9 | 13.7 | 8.37 | 29.8 | 17.8 | 15.8 | 19.1 | 14.1 | 16.4 | 14.7 |
| O=[P@@]1(c2ccccc2)O[C@H](COCc2ccccc2)[C@@H](OCc2ccccc2)[C@H](OCc2ccccc2)[C@H]1NCc1ccccc1 | > 100 µM | > 100 µM | 6.09 | > 100 µM | > 100 µM | 7.11 µM | > 100 | > 100 µM | 3.6 µM | > 100 µM | 3.04 | 4.26 | 2.15 | 2.86 | 3.21 | 2.59 | 3.16 | 3.51 | 1.83 | 3.52 |
